{"source": "paper PMC2195568", "about": "(The Journal of Experimental Medicine, 1999)", "key": {"[1]": {"tested_on": "PBMCs of patients with chronic HCV infection", "format": "cell-based, human", "settings": "HCV core 178 stimulation; result in words"}, "[2]": {"tested_on": "PBMCs from healthy HCV-seronegative blood donors", "format": "cell-based, human", "settings": "of 12 healthy donors"}, "[3]": {"tested_on": "CTLs in the peripheral blood of patients with chronic HCV infection", "settings": "cited from earlier work"}, "[4]": {"settings": "after stimulation with HCV core 178"}}}
{"sequence": "LLALLSCLTV [HCV core 178]", "values": [{"measurement": "percentage of patients having cross-reactive CTLs compared with healthy donors", "setting": "[1]", "result": "comparable to that of healthy donors"}, {"measurement": "blood donors with induced HCV core 178–specific CTLs", "setting": "[2]; 10 μg/ml peptide, four replica cultures, 5 wk stimulation", "result": "nine"}, {"measurement": "individuals recognizing HCV core 178 and CYP2A7 8–17", "setting": "[2]; [4]", "result": "three"}, {"measurement": "individuals recognizing HCV core 178 only", "setting": "[2]; [4]", "result": "four"}, {"measurement": "individuals without CTL response", "setting": "[2]; [4]", "result": "three"}, {"measurement": "processing and presentation of the peptide", "setting": "[3]", "result": "processed and presented via the endogenous MHC class I pathway"}, {"measurement": "recognition by CTLs in patients with chronic HCV infection", "setting": "[3]; peripheral blood", "result": "target epitope for CTLs"}]}
